From the NIST ThermoML archive (doi:10.1007/s10765-009-0602-6)

Test: molar heat capacity at constant volume; xn = mol fraction of the nth substance listed
Settings: Fluid (supercritical or subcritical phases), isochoric heat capacity, x1 = 0.2607

N [ammonia] + O
Settings | molar heat capacity at constant volume [J/K/mol]
602.99 K, Mass density=227.54 kg/m3 | 102.11
602.99 K, Mass density=230.31 kg/m3 | 103.53
602.99 K, Mass density=311.19 kg/m3 | 92.66
602.99 K, Mass density=342.18 kg/m3 | 84.9
603.01 K, Mass density=218.92 kg/m3 | 92.95
603.08 K, Mass density=205.58 kg/m3 | 71.27
603.08 K, Mass density=214.83 kg/m3 | 91.92
603.08 K, Mass density=218.92 kg/m3 | 93.46
603.08 K, Mass density=224.53 kg/m3 | 102.11
603.08 K, Mass density=227.54 kg/m3 | 94.83
603.08 K, Mass density=230.31 kg/m3 | 97.85
603.08 K, Mass density=311.19 kg/m3 | 88.26
603.1 K, Mass density=214.83 kg/m3 | 85.33
603.16 K, Mass density=205.58 kg/m3 | 70.95
603.16 K, Mass density=227.54 kg/m3 | 89.2
603.16 K, Mass density=230.31 kg/m3 | 92.7
603.16 K, Mass density=311.19 kg/m3 | 87
603.17 K, Mass density=224.53 kg/m3 | 98.9
603.17 K, Mass density=243.98 kg/m3 | 88.9
603.17 K, Mass density=260.02 kg/m3 | 88.9
603.25 K, Mass density=205.58 kg/m3 | 73.52
603.25 K, Mass density=224.53 kg/m3 | 95.33
603.25 K, Mass density=227.54 kg/m3 | 90.78
603.25 K, Mass density=311.19 kg/m3 | 89.86
603.26 K, Mass density=230.31 kg/m3 | 91.49
603.26 K, Mass density=243.98 kg/m3 | 86.61
603.26 K, Mass density=260.02 kg/m3 | 86.61
603.33 K, Mass density=224.53 kg/m3 | 94.9
603.34 K, Mass density=205.58 kg/m3 | 69.68
603.34 K, Mass density=243.98 kg/m3 | 87.69
603.34 K, Mass density=260.02 kg/m3 | 87.69
603.42 K, Mass density=205.58 kg/m3 | 67.87
603.42 K, Mass density=224.53 kg/m3 | 95.2
603.42 K, Mass density=311.19 kg/m3 | 88.62
603.43 K, Mass density=243.98 kg/m3 | 88.17
603.43 K, Mass density=260.02 kg/m3 | 88.17
603.51 K, Mass density=205.58 kg/m3 | 72.19
603.51 K, Mass density=243.98 kg/m3 | 85.63
603.51 K, Mass density=260.02 kg/m3 | 85.63
603.58 K, Mass density=243.98 kg/m3 | 83.27
603.58 K, Mass density=260.02 kg/m3 | 83.27
603.59 K, Mass density=205.58 kg/m3 | 69.01
603.59 K, Mass density=227.54 kg/m3 | 89.22
603.6 K, Mass density=214.83 kg/m3 | 85.67
603.67 K, Mass density=230.31 kg/m3 | 84.99
603.68 K, Mass density=214.83 kg/m3 | 84.57
603.68 K, Mass density=227.54 kg/m3 | 87.34
603.69 K, Mass density=243.98 kg/m3 | 85.13
603.69 K, Mass density=260.02 kg/m3 | 85.13
603.76 K, Mass density=227.54 kg/m3 | 89.27
603.77 K, Mass density=214.83 kg/m3 | 81.81
603.77 K, Mass density=218.92 kg/m3 | 89.86
603.78 K, Mass density=243.98 kg/m3 | 82.7
603.78 K, Mass density=260.02 kg/m3 | 82.7
603.85 K, Mass density=224.53 kg/m3 | 94
603.85 K, Mass density=227.54 kg/m3 | 85.53
603.86 K, Mass density=218.92 kg/m3 | 86.91
603.86 K, Mass density=260.02 kg/m3 | 83.32
603.92 K, Mass density=214.83 kg/m3 | 84.57
603.93 K, Mass density=227.54 kg/m3 | 84.41
603.94 K, Mass density=224.53 kg/m3 | 94.9
603.94 K, Mass density=230.31 kg/m3 | 86.75
604.02 K, Mass density=224.53 kg/m3 | 91.83
604.02 K, Mass density=227.54 kg/m3 | 87.55
604.04 K, Mass density=214.83 kg/m3 | 80.85
604.09 K, Mass density=214.83 kg/m3 | 82.56
604.11 K, Mass density=224.53 kg/m3 | 94.23
604.11 K, Mass density=227.54 kg/m3 | 83.91
604.12 K, Mass density=230.31 kg/m3 | 81.87
604.19 K, Mass density=224.53 kg/m3 | 93.25
604.19 K, Mass density=227.54 kg/m3 | 84.67
604.2 K, Mass density=214.83 kg/m3 | 82.1
604.28 K, Mass density=214.83 kg/m3 | 79.51
604.28 K, Mass density=224.53 kg/m3 | 89.96
604.28 K, Mass density=227.54 kg/m3 | 86.4
604.31 K, Mass density=230.31 kg/m3 | 80.09
604.36 K, Mass density=224.53 kg/m3 | 91.15
604.43 K, Mass density=230.31 kg/m3 | 85.06
604.45 K, Mass density=224.53 kg/m3 | 90.84
604.52 K, Mass density=230.31 kg/m3 | 82.6
605.13 K, Mass density=329 kg/m3 | 85.88
605.22 K, Mass density=329 kg/m3 | 88.22
